One series in a line: clinical. The conditions noted are these: both, human, in vivo, po.
For series [1] the following is noted: PubChem, cited from earlier work.
Series [2] can be described thus: Comparative urine analysis after ingesting cough syrup (LC-MS/MS, creatinine-normalized). To be noted: 15 mL cough syrup oral; for k el / MRT / Tmax / half-life: human, in vivo; for MRT: reciprocal of kel; for Tmax: seven volunteers; for half-life: time from Cmax to half of Cmax. It counts as in vivo, humans.
Description: Before analysis, the urine samples were thawed at room temperature and centrifuged at 6,000g to remove coarse material. Subsequently, 1 mL of the supernatant was combined with 10 μL of the internal standard mixture (containing 10 ng/mL Cod-d 6 and Clp-d 6) and loaded onto C18 solid-phase extraction (SPE) columns for sample cleanup, following previously established protocols. The SPE eluate was then dried under a nitrogen stream and redissolved in 100 μL of methanol before analysis using the same LC–MS/MS method described earlier for mask sample analysis. In a separate LC–MS/MS analysis, urinary creatinine concentration was determined using creatinine-d 3 as an internal standard, as reported previously.
Grubb’s test was conducted to identify outliers. The biological half-life (t 1/2) of individual drugs was calculated as the time for their concentration in exhaled breath or urine to decrease from its maximum (C max) to half of C max. The elimination rate constant (k el) and mean residence time (MRT) of each drug were determined from the slope of the elimination phase of the exhaled breath or urine concentration curve plotted on a semilogarithmic scale and by taking the reciprocal of the elimination rate constant, respectively.
The conditions of series [3]: reported in the literature, ref numbers not given; cited from earlier work.
Series [4] in a line: Drug clearance study by breathing through face masks (exhaled breath, LC-MS/MS). To be noted: for MRT / Tmax / half-life / k el: both, human, in vivo, po, 15 mL.
For series [5] the following is noted: both, human, in vivo, po.
The mark [6] stands for this setting: exhaled breath, 15 mL cough syrup oral.

In general, MRT refers to a mean duration of stay, worked out from the concentration-time curve. As a reminder, the Tmax is the time at which the peak concentration occurs. As usually defined, the pKa is the negative logarithm of the acid dissociation constant. The term half-life denotes the time in which the quantity being followed falls by half. A high value points to slow loss.

Structures are written as SMILES. Read-outs that look alike come from different tables or passages of the source.

As to `CN(C)CCC(c1ccc(Cl)cc1)c1ccccn1` (stereo not shown) [Chlorpheniramine], in the series “clinical”, the MRT was determined as 34.2 ± 4.6 h, the time to peak (Tmax) worked out at 13.1 ± 5 h and the k el is 8.33e-06 s⁻¹. Besides, the pKa in series [1] is reported as 9.5^36. In series [1] (listed as Clp), the pKa is recorded as roughly 9.5.

As for `COc1ccc2c3c1O[C@H]1[C@@H](O)C=C[C@H]4[C@@H](C2)N(C)CC[C@@]341` [Codeine], in series [2], the detection window is recorded as 68.2 ± 8.3 h, the k el was 8.33e-05 s⁻¹, the mean residence time (MRT) came out at 4.6 ± 2.1 h and the time to peak (Tmax) stood at 2.1 ± 1.3 h. This compound had a half-life in series [2] of 3.3 ± 0.7 h. For the same compound, in series [3], the “plasma t1/2” value is 2 to 3 h. In addition, in series [4], the mean residence time MRT was 3.9 ± 0.8 h, the Tmax stood at 1.9 ± 1 h, the half-life was 2.9 ± 0.8 h and the k el was 8.33e-05 s⁻¹. The same compound returned a detection window in series [4] (setting [6]) of 61.3 ± 12.7 h.

In series [5], `COc1ccccc1OCC(O)CO` (stereo not shown) [Guaifenesin] showed a detection window of 65.1 ± 18.1 h. In the series “clinical”, the mean residence time MRT turned out to be 4.8 ± 4.2 h, the Tmax amounted to 0.9 ± 0.2 h, the half-life was 2.1 ± 0.9 h and the k el was 0.000111 s⁻¹. The “plasma t1/2” value in series [3] was roughly 1 h.

For `CN[C@@H](C)[C@H](O)c1ccccc1` [Ephedrine], in series [2], the detection window was 79.9 ± 11.4 h, the k el is 2.78e-05 s⁻¹, the MRT turned out to be 10.4 ± 3.3 h and the Tmax was 2.7 ± 1.8 h. This compound also gave a half-life in series [2] of 6.2 ± 0.6 h. Also, the “plasma t1/2” value in series [3] is “approximately 6 h”. Moreover, in series [4], the mean residence time (MRT) came out at 14.5 ± 4.1 h, the time to peak (Tmax) was found to be 6.9 ± 1.1 h, the half-life was 10 ± 2.8 h and the k el is 2.78e-05 s⁻¹. Moreover, in series [4] (setting [6]), the “Cmax in exhaled breath” value was determined as 10.8 ± 1.6 ng/m^3 and the detection window stood at 92.6 ± 9.1 h.

These data come from publication PMC12096346, “Disposable Face Masks for Noninvasive Drug Detection: A Proof-of-Concept Study with Cough Syrup Constituents” (Analytical Chemistry, 2025).
